# Assay results as given in US10370438B2, “Histamine-releasing factor (HRF), HRF-receptor and methods of modulating inflammation” (LA JOLLA INSTITUTE FOR ALLERGY AND IMMUNOLOGY, priority 2010, dated 2019).
# Entries after “also recorded” stand apart in the source; their conditions may differ.
# Experiments:
# mice = experiment: T cell-dependent/mast cell-independent airway inflammation model (OVA with alum); assay type: in vivo, mouse; conditions: mice immunized with OVA with alum and challenged with OVA
# WT mice = experiment: IgE/antigen-induced PCA with GST-N19 ear injection; assay type: in vivo, mouse
# Protocol: Mouse ears were first sensitized with 0.5 μg anti-TNP (C38-2 in the right ear and C48-2 in the left ear) IgE. After 24 hours, Evans' blue dye was intravenously (i.v.) injected, and TNP26-BSA (Ag: 0.1 μg) or mHRF-His6 (10 μg) were immediately injected into the ears. The acute (30 minute) reactions were analyzed by measurement of Evans' blue dye leakage. The ear thickness was measured using a micrometer (Mitutoyo) at 0.5, 1, 2, 4, 6, 8, 12, and 24 hours after mHRF-His6challenge. As a negative control, saline was injected into the ears in place of antigen or HRF challenge. IgG-mediated response was performed by sensitization with 2 μg IgG1 (in place of anti-TNP IgE) and challenge with anti-mouse IgG1 Ab (0.6 μg: Southern Biotechnology, in place of TNP26-BSA). Engraftmanet of Kit^W-sh/W-sh mice with BMMCs was performed 6 weeks before study (Nakano, T., et al. J Exp Med 162:1025-1043 (1985)). In some studies, mice were sensitized and stimulated as described above but without Evans blue.
# To study HRFs involvement in IgE/antigen-induced PCA reactions, WT mice were overnight sensitized the IgE. Left ears were injected with GST and the right ears were injected with GST-N19, and then TNP26-BSA were injected in both ears. Ear thickness was measured over a 10 hour period. *, **, ***: p<0.05, p<0.01, p<0.001 by Student's t-test. […]
# HRF/IgG binding = experiment: Inhibition of HRF/IgG binding; parameters: species or system mouse
# Protocol: To identify an inhibitor of HRF/Ig interactions to dissect the extracellular function (═HRF function as a cytokine) separate from the intracellular functions in vivo settings, the major Ig-interacting HRF sequence was studied as a specific inhibitor of HRF/Ig interactions. IgE molecules were incubated in GST-mHRF-coated wells in the presence or absence (−) of the indicated concentrations of competitors, GST-N19, GST-mHRF or mHRF-His6 for 2 hours. After incubation, bound-IgE was detected by incubation with biotinylated anti-mouse IgE mAb, followed by streptavidin-HRP. […] By contrast, none of the shorter mHRF peptides tested (residues 1-6, 1-12, 5-19, and 9-19) inhibited HRF/IgE binding. GST-N19 inhibited HRF/IgG binding as well.
substance,measurement,setting,value
GST-N19: GST fusion protein encoding the first 19 residues of mHRF; inhibitor of HRF/Ig interactions,Airway inflammation,mice,failed to inhibit; also recorded: does not inhibit
same,PCA (ear thickness),WT mice; HRF-nonreactive IgE-induced PCA,insensitive
same,Acute reactions and LPR (ear thickness),"WT mice; HRF-reactive IgE-induced PCA, TNP26-BSA challenge",significantly reduced
same,Inhibition of HRF/IgG binding,HRF/IgG binding,inhibited
